Source: ChEMBL document CHEMBL2375280, “Synthesis of novel 1,3,4-trisubstituted pyrazoles as anti-inflammatory and analgesic agents” (Eur J Med Chem, 2013)

How the values were obtained:
Rattus norvegicus [1] = assay: Ulcerogenic effect in albino rat stomach assessed as ulcer index at 0.32 mmol/kg, po administered for 3 days measured 2 hrs post last dose; assay type: toxicity, organism-based; conditions: in vivo
Mus musculus = assay: Analgesic activity in albino mouse assessed as protection against p-benzoquinone-induced writhing at 0.32 mmol/kg, ip administered 1 hr prior to p-benzoquinone challenge measured for 30 mins relative to control; assay type: functional
Rattus norvegicus [2] = assay: Antiinflammatory activity in Wistar albino rat assessed as inhibition of carrageenan-induced paw edema at 0.32 mmol/kg, ip administered 1 hr prior to carrageenan challenge measured at 3 hrs by plethysmometric analysis relative to control; assay type: functional
Rattus norvegicus [3] = assay: Antiinflammatory activity in Wistar albino rat assessed as inhibition of carrageenan-induced paw edema at 0.32 mmol/kg, ip administered 1 hr prior to carrageenan challenge measured at 2 hrs by plethysmometric analysis relative to control; assay type: functional
Homo sapiens = organism: Homo sapiens; assay: Selectivity ratio for COX1 (unknown origin) over COX2 (unknown origin)
[4] = Acute toxicity in ip dosed mouse assessed as mortality measured for 24 hrs; assay type: organism-based; conditions: in vivo
Rattus norvegicus [5] = assay: Antiinflammatory activity in ip dosed Wistar albino rat assessed as inhibition of carrageenan-induced paw edema administered 1 hr prior to carrageenan challenge measured at 3 hrs by plethysmometric analysis; assay type: functional, organism-based
Rattus norvegicus [6] = assay: Antiinflammatory activity in Wistar albino rat assessed as inhibition of carrageenan-induced paw edema at 0.16 mmol/kg, ip administered 1 hr prior to carrageenan challenge measured at 3 hrs by plethysmometric analysis relative to control; assay type: functional
Rattus norvegicus [7] = assay: Antiinflammatory activity in Wistar albino rat assessed as inhibition of carrageenan-induced paw edema at 0.08 mmol/kg, ip administered 1 hr prior to carrageenan challenge measured at 3 hrs by plethysmometric analysis relative to control; assay type: functional

Row | Compound | Activity (Mus musculus) | inhibition in vivo at 320 µmol/kg (Rattus norvegicus [2]) | inhibition in vivo at 320 µmol/kg (Rattus norvegicus [3]) | also measured
1 | Cc1ccc(-c2nn(-c3ccc(Cl)cc3)cc2-c2cc(-c3ccc(Cl)cc3)[nH]c2-c2ccc(F)cc2)cc1 | 33.33% | 21% | 38.3% | UI (Rattus norvegicus [1]): 13
2 | COc1ccc(C(=O)C(CC(=O)c2ccc(Cl)cc2)c2cn(-c3ccc(S(N)(=O)=O)cc3)nc2-c2ccc(C)cc2)cc1 (centres undefined) | 50% | 61.1% | 53.8% | 
3 | COc1ccc(-c2nn(-c3ccc(Cl)cc3)cc2C(CC(=O)c2ccc(Cl)cc2)C(=O)c2ccc(F)cc2)cc1 (centres undefined) |  | 37.8% | 19.8% | 
4 | Cc1ccc(-c2nn(-c3ccc(S(N)(=O)=O)cc3)cc2/C=N\c2ccc(Cl)cc2)cc1 | 33.33% | 78.4% | 69.1% | UI (Rattus norvegicus [1]): 5.8
5 | Cc1ccc(-c2nn(-c3ccc(S(N)(=O)=O)cc3)cc2C(CC(=O)c2ccc(Cl)cc2)C(=O)c2ccc(F)cc2)cc1 (centres undefined) | 50% | 56.2% | 53.5% | 
6 | COc1ccc(/N=C\c2cn(-c3ccc(Cl)cc3)nc2-c2ccc(OC)cc2)cc1 | 66.67% | 82.2% | 69.2% | Selectivity ratio (Homo sapiens): 1.17; LD50 at 24 h [4]: 3250 µmol/kg; UI (Rattus norvegicus [1]): 14.32; IC50 (Rattus norvegicus [5]): 0.2 mmol/kg; inhibition in vivo at 160 µmol/kg (Rattus norvegicus [6]): 43%; inhibition in vivo at 80 µmol/kg (Rattus norvegicus [7]): 37.5%
7 | COc1ccc(C(=O)C(CC(=O)c2ccc(Cl)cc2)c2cn(-c3ccc(S(N)(=O)=O)cc3)nc2-c2ccc(OC)cc2)cc1 (centres undefined) |  | 22.5% | 30.8% | 
8 | COc1ccc(C(=O)C(CC(=O)c2ccc(Cl)cc2)c2cn(-c3ccc(Cl)cc3)nc2-c2ccc(C)cc2)cc1 (centres undefined) |  | 23.9% | 16.1% | 
9 | Cc1ccc(-c2nn(-c3ccc(Cl)cc3)cc2/C=N\c2ccc(Cl)cc2)cc1 |  | 49.2% | 48.3% | 
10 | COc1ccc(/N=C\c2cn(-c3ccc(S(N)(=O)=O)cc3)nc2-c2ccc(OC)cc2)cc1 | 33.33% | 68.5% | 65.8% | LD50 at 24 h [4]: 3250 µmol/kg; UI (Rattus norvegicus [1]): 16.4
11 | Cc1ccc(-c2nn(-c3ccc(Cl)cc3)cc2/C=N\c2ccccc2)cc1 |  | 49.3% | 40.1% | 
12 | COc1ccc(-c2nn(-c3ccc(Cl)cc3)cc2-c2cc(-c3ccc(Cl)cc3)[nH]c2-c2ccc(F)cc2)cc1 | 33.33% | 61.9% | 53.7% | UI (Rattus norvegicus [1]): 12
13 | COc1ccc(-c2nn(-c3ccc(S(N)(=O)=O)cc3)cc2/C=N\c2ccccc2)cc1 |  | 55.4% | 38.5% | 
14 | COc1ccc(-c2nn(-c3ccc(Cl)cc3)cc2-c2cc(-c3ccc(Cl)cc3)[nH]c2-c2ccc(OC)cc2)cc1 |  | 20.7% | 10.5% | 
15 | COc1ccc(-c2nn(-c3ccc(Cl)cc3)cc2C=O)cc1 | 33.33% | 57.6% | 63.1% | 
16 | Cc1ccc(-c2nn(-c3ccc(Cl)cc3)cc2C=O)cc1 |  | 56% | 49.9% | 
17 | COc1ccc(-c2nn(-c3ccc(S(N)(=O)=O)cc3)cc2-c2cc(-c3ccc(Cl)cc3)[nH]c2-c2ccc(F)cc2)cc1 |  | 55.9% | 55.7% | 
18 | Cc1ccc(-c2nn(-c3ccc(Cl)cc3)cc2/C=C\C(=O)c2ccc(Cl)cc2)cc1 |  | 61.4% | 49.2% | 
19 | COc1ccc(-c2nn(-c3ccc(S(N)(=O)=O)cc3)cc2C(CC(=O)c2ccc(Cl)cc2)C(=O)c2ccc(F)cc2)cc1 (centres undefined) | 33.33% | 68.1% | 72.2% | 

Row | Compound | Activity (Mus musculus) | inhibition in vivo at 320 µmol/kg (Rattus norvegicus [2]) | inhibition in vivo at 320 µmol/kg (Rattus norvegicus [3]) | also measured
20 | COc1ccc(-c2nn(-c3ccc(S(N)(=O)=O)cc3)cc2/C=N\c2ccc(Cl)cc2)cc1 | 50% | 62.8% | 63% | LD50 at 24 h [4]: 2440 µmol/kg
21 | Cc1ccc(-c2nn(-c3ccc(S(N)(=O)=O)cc3)cc2/C=N\c2ccccc2)cc1 |  | 57.1% | 58.1% | 
22 | COc1ccc(-c2nn(-c3ccc(Cl)cc3)cc2/C=N\c2ccc(Cl)cc2)cc1 | 33.33% | 72.6% | 69.6% | Selectivity ratio (Homo sapiens): 0.95; UI (Rattus norvegicus [1]): 5.4
23 | COc1ccc(-c2nn(-c3ccc(Cl)cc3)cc2/C=N\c2ccccc2)cc1 | 16.67% | 72.6% | 57.2% | 
24 | COc1ccc(-c2nn(-c3ccc(S(N)(=O)=O)cc3)cc2C=O)cc1 | 16.67% | 81.5% | 83% | UI (Rattus norvegicus [1]): 11.2
25 | Cc1ccc(-c2nn(-c3ccc(Cl)cc3)cc2C(CC(=O)c2ccc(Cl)cc2)C(=O)c2ccc(F)cc2)cc1 (centres undefined) |  | 19.4% | 25.9% | 
26 | COc1ccc(-c2nn(-c3ccc(S(N)(=O)=O)cc3)cc2-c2cc(-c3ccc(Cl)cc3)[nH]c2-c2ccc(OC)cc2)cc1 |  | 28.6% | 48.1% | 
27 | COc1ccc(-c2nn(-c3ccc(S(N)(=O)=O)cc3)cc2/C=C\C(=O)c2ccc(Cl)cc2)cc1 |  | 56% | 55.6% | 
28 | COc1ccc(C(=O)C(CC(=O)c2ccc(Cl)cc2)c2cn(-c3ccc(Cl)cc3)nc2-c2ccc(OC)cc2)cc1 (centres undefined) |  | 9.61% | 0% | 
29 | Cc1ccc(-c2nn(-c3ccc(S(N)(=O)=O)cc3)cc2C=O)cc1 | 16.67% | 68.2% | 58.4% | UI (Rattus norvegicus [1]): 9.6
30 | CCCCC1C(=O)N(c2ccccc2)N(c2ccccc2)C1=O [PHENYLBUTAZONE] | 33.33% | 70.5% | 57.3% | UI (Rattus norvegicus [1]): 30.2; IC50 (Rattus norvegicus [5]): 0.22 mmol/kg; inhibition in vivo at 160 µmol/kg (Rattus norvegicus [6]): 42.1%; inhibition in vivo at 80 µmol/kg (Rattus norvegicus [7]): 20%
31 | COc1ccc(/N=C\c2cn(-c3ccc(Cl)cc3)nc2-c2ccc(C)cc2)cc1 | 16.67% | 48.9% | 62% | 
32 | COc1ccc(-c2[nH]c(-c3ccc(Cl)cc3)cc2-c2cn(-c3ccc(S(N)(=O)=O)cc3)nc2-c2ccc(C)cc2)cc1 | 50% | 34.2% | 49.7% | 
33 | COc1ccc(-c2nn(-c3ccc(Cl)cc3)cc2/C=C\C(=O)c2ccc(Cl)cc2)cc1 |  | 66.4% | 53.7% | 
34 | Cc1ccc(-c2nn(-c3ccc(S(N)(=O)=O)cc3)cc2/C=C\C(=O)c2ccc(Cl)cc2)cc1 |  | 47.6% | 53.3% | 
35 | COc1ccc2c(c1)c(CC(=O)O)c(C)n2C(=O)c1ccc(Cl)cc1 |  |  |  | Selectivity ratio (Homo sapiens): 3.94
36 | COc1ccc(-c2[nH]c(-c3ccc(Cl)cc3)cc2-c2cn(-c3ccc(Cl)cc3)nc2-c2ccc(C)cc2)cc1 |  | 21.3% | 9.38% | 
37 | Cc1ccc(-c2nn(-c3ccc(S(N)(=O)=O)cc3)cc2-c2cc(-c3ccc(Cl)cc3)[nH]c2-c2ccc(F)cc2)cc1 | 16.67% | 66.7% | 75.4% | Selectivity ratio (Homo sapiens): 0.87; LD50 at 24 h [4]: 3250 µmol/kg; UI (Rattus norvegicus [1]): 15; IC50 (Rattus norvegicus [5]): 0.21 mmol/kg; inhibition in vivo at 160 µmol/kg (Rattus norvegicus [6]): 43.6%; inhibition in vivo at 80 µmol/kg (Rattus norvegicus [7]): 14%
38 | COc1ccc(/N=C\c2cn(-c3ccc(S(N)(=O)=O)cc3)nc2-c2ccc(C)cc2)cc1 |  | 56.2% | 48.8% | 
